Assays:
[1] = test system: olfactory receptors in liver tissue; test: OligoDNA microarray, liver tissue of HFD mice fed odor components; assay type: in vivo, mouse
Excerpt: (§1) The obesity-inducing control diet used in the test was high-fat diet (HFD: 40% fat calorie, 17 g lard+3% corn oil/100 g diet). Diets supplemented with an odor component had the same composition as HFD, except that each of various types of odor components (indol-3-carbinol, oleuropein, cedryl acetate, α-cedrene and piperine) having anti-obesity efficacy was contained in 0.02-0.05% concentration. Indo)-3-carbinol, oleuropein, cedryl acetate, a-cedrene and piperine were purchased from Sigma-Aldrich.
(§2) After adding Trizol agent to visceral fat or liver tissue, the mixture was homogenized and centrifuged at 12,000×g for 10 min at 4° C. The supernatant was transferred to a new tube to remove fat layer. Then, 200 μl of chloroform was added to the tube, followed by vortexing. The same procedure was repeated twice and then the supernatant was transferred to a new tube, followed by addition of isopropanol and the supernatant at 1:1 ratio. The mixture was vigorously shaken 10 times and then incubated for 10 min at room temperature, followed by centrifugation at 12,000×g for 10 min at 4° C. to remove the supernatant. After adding 1 mL of 70% ethanol to the remaining pellet, it was centrifuged at 7,500×g for 5 min at 4° C. After removing the ethanol, the RNA pellet contained in the tube was dried for 5 min at 4° C. and dissolved in nuclease-free water. The RNA sample concentration was measured at a wavelength of 260 nm and 280 nm using a UV/VIS spectrophotometer (Beckman coulter, DU730) and the integrity of RNA sample was verified by agarose gel electrophoresis.
(§3) DNA microarry analysis using RNAs of visceral fat and liver tissue was conducted by GENOCHECK (CO., LTD.). RNA samples were pooled from 10 mice in each experimental group and subjected to microarray experiments in triplicate for the test of reproducibility. NimbleGen Mouse Whole Oligo 12-plex chip used in this experiment was prepared by triplicating 42,576 genes using Mouse Genome Build 8 as database. In NimbleGen mouse Whole Oligo 12-plex chip, 137,090 spots excluded control group gene were spotted by 16 μm×16 μm size in 17.4 mm×13 mm size. 42,576 oligo included […] genes which are known their functions and 5,431 transcripts and EST sequences which are unknown their functions. 10-50 μg of total RNA was added in oligo-dT primer, reverse transcriptase, dNTP, Cy3-dUTP and Cy5-dUTP, and reverse-transcripted according to the kit manufacturer's recommendations. The resultant was purified using cartridge, dried and dissolved in hybridization buffer solution (30 μL). The microarray was placed in hybridization cassette, heated at 95-100° C. for 5 min, mixed independently to each of RNA labeled with Cy3 and Cy5, and hybridized at 45° C. for 18 hrs. The slide was washed twice in solution containing 1×SSC and 0.1% SDS for 5 min, washed in 1×SSC for 5 min and dried to analyze.
(§4) The profile for olfactory receptors in which the expression was regulated by more than 2-fold change due to intake of odor components at each tissue was shown in Tables 5. As a result, it was determined that various types of odor components having anti-obesity efficacy regulated a plurality of olfactory receptors in peripheral tissues.

[2] = test system: olfactory receptors in visceral fat tissue; test: OligoDNA microarray, visceral fat tissue of HFD mice fed odor components; assay type: in vivo, mouse
Protocol: DNA microarry analysis using RNAs of visceral fat and liver tissue was conducted by GENOCHECK (CO., LTD.). RNA samples were pooled from 10 mice in each experimental group and subjected to microarray experiments in triplicate for the test of reproducibility. NimbleGen Mouse Whole Oligo 12-plex chip used in this experiment was prepared by triplicating 42,576 genes using Mouse Genome Build 8 as database. In NimbleGen mouse Whole Oligo 12-plex chip, 137,090 spots excluded control group gene were spotted by 16 μm×16 μm size in 17.4 mm×13 mm size. 42,576 oligo included 137,145 genes which are known their functions and 5,431 transcripts and EST sequences which are unknown their functions. 10-50 μg of total RNA was added in oligo-dT primer, reverse transcriptase, dNTP, Cy3-dUTP and Cy5-dUTP, and reverse-transcripted according to the kit manufacturer's recommendations. The resultant was purified using cartridge, dried and dissolved in hybridization buffer solution (30 μL). The microarray was placed in hybridization cassette, heated at 95-100° C. for 5 min, mixed independently to each of RNA labeled with Cy3 and Cy5, and hybridized at 45° C. for 18 hrs. The slide was washed twice in solution containing 1×SSC and 0.1% SDS for 5 min, washed in 1×SSC for 5 min and dried to analyze.

[3] = test system: obesity and metabolic diseases-related genes in visceral fat tissue; test: RT-PCR of obesity and metabolic diseases-related genes, visceral fat tissue; assay type: in vivo, mouse; conditions: odor component-supplemented group to the HFD control group
Protocol: After adding 1 mL of Trizol agent (Invitrogen, USA) per 0.1 g of visceral fat or liver tissues, the mixture was homogenized and centrifuged at 12,000×g for 10 min at 4° C. The supernatant was transferred to a new tube and 200 μl of chloroform was added to the tube, followed by vortexing. The same procedure was repeated twice and then the supernatant was transferred to a new tube, followed by addition of isopropanol and the supernatant at 1:1 ratio. The mixture was vigorously shaken 10 times and then incubated for 10 min at room temperature, followed by centrifugation at 12,000×g for 10 min at 4° C. to remove the supernatant. After adding 1 mL of 70% ethanol to the remaining pellet, it was centrifuged at 7,500×g for 5 min at 4° C. After removing the ethanol, the RNA pellet contained in the tube was dried for 5 min at 4° C. and dissolved in nuclease-free water. The RNA sample concentration was measured at a wavelength of 260 nm and 280 nm using a UV/VIS spectrophotometer (Beckman coulter, DU730) and the integrity of RNA sample was verified by agarose gel electrophoresis. The RNA sample obtained from the visceral fat or liver tissues was trasnscribed using oligo dT primer and reverse transcriptase (GIBCO BRL, Gaithersburg, Md., USA) to synthesize cDNA. The PCR amplification was performed using the cDNA as templates and primers complementary to cDNA [NT] flanking sequence. 1 μl of the amplified products were resolved on agarose gel electrophoresis to verify DNA band.

[4] = test system: olfactory receptors in visceral fat and liver tissues; test: OligoDNA microarray, visceral fat and liver tissues of HFD mice fed odor components (tissue not separated in text); assay type: in vivo; conditions: supplemented to mouse fed high-fat diet for 10 weeks
Excerpt: as §1, §2, §3, §4

[5] = test system: AKT (v-akt murine thymoma viral oncogene); test: Western blotting, protein phosphorylation of AKT; assay type: in vivo, mouse
Protocol: (§5) A certain amount of visceral fat or liver tissues in mortar was homogenized with liquid nitrogen and cell lysis buffer. The mixture was transferred to a new tube, followed by vortexing. After centrifugation at 13,000×g for 20 min at 4° C., the middle layer of the tube was obtained and proteins were quantified by Bradford method. 50 μg of protein was electrophorized to SDS polyacrylamide gel, followed by electroblotting to PVDF hyper film. The protein was reacted using an appropriate antibody for the protein and detected by ECL, whereby insulin resistance, adipocyte differentiation, lipid metabolism or energy consumption-related mechanism of phytochemical components was investigated in the protein level.
(§6) In order to verify this, protein phosphorylations of HSL (hormone sensitive lipase), CREB (cAMP-responsive element binding protein) and AKT (v-akt murine thymoma viral oncogene) were evaluated by western blotting analysis.

[6] = test system: CREB (cAMP-responsive element binding protein); test: Western blotting, protein phosphorylation of CREB; assay type: in vivo, mouse
Protocol: as §5, §6

[7] = test system: HSL (hormone sensitive lipase); test: Western blotting, protein phosphorylation of HSL; assay type: in vivo, mouse
Protocol: as §5, §6

[8] = supplemented to HFD-fed mouse 10 weeks
[9] = odor component-supplemented group to the HFD control group
[10] = western blotting, compared to the HFD control group

OCc1c[nH]c2ccccc12 [Indole-3 carbinol]
Olfr16 expression fold change to HFD group [1, 8]: 0.47
Olfr116 expression fold change to HFD group [1, 8]: 2.12
Olfr178 expression fold change to HFD group [1, 8]: 2.06
Olfr196 expression fold change to HFD group [1, 8]: 0.45
Olfr259 expression fold change to HFD group [1, 8]: 0.50
Olfr290 expression fold change to HFD group [1, 8]: 2.11
Olfr466 expression fold change to HFD group [1, 8]: 0.49
Olfr686 expression fold change to HFD group [1, 8]: 0.35
Olfr1045 expression fold change to HFD group [1, 8]: 0.45
Olfr1153 expression fold change to HFD group [1, 8]: 2.82
Olfr1216 expression fold change to HFD group [1, 8]: 0.41
Olfr1329 expression fold change to HFD group [1, 8]: 0.48
Olfr1337 expression fold change to HFD group [1, 8]: 0.49
Olfr380 expression fold change to HFD group [2, 8]: 2.20
Olfr909 expression fold change to HFD group [2, 8]: 3.45
Olfr972 expression fold change to HFD group [2, 8]: 0.43
Olfr1093 expression fold change to HFD group [2, 8]: 0.42
Olfr1165 expression fold change to HFD group [2, 8]: 0.39
Olfr1462 expression fold change to HFD group [2, 8]: 2.26

CC(=O)O[C@]1(C)CC[C@@]23C[C@@H]1C(C)(C)[C@@H]2CC[C@H]3C [cedryl acetate]
C/EBPα gene expression, decrease (change rate) [3]: 36% decrease
CPT1 gene expression, increase (change rate) [3]: 47% increase^
FAS gene expression, decrease (change rate) [3]: 43% decrease
IL-6 gene expression, decrease (change rate) [3]: 74% decrease
PGC1α gene expression, increase (change rate) [3]: 57% increase^
PPARγ2 gene expression, decrease (change rate) [3]: 25% decrease
SIRT1 gene expression, increase (change rate) [3]: 650% increase ^
TNFα gene expression, decrease (change rate) [3]: 99% decrease
UCP1 gene expression, increase (change rate) [3]: 899% increase ^
UCP3 gene expression, increase (change rate) [3]: 65% increase^
aP2 gene expression, decrease (change rate) [3]: 33% decrease
expression of olfactory receptor 38 [1]: increased
expression of olfactory receptor 77 [1]: decreased
expression of olfactory receptor 275 [1]: increased
expression of olfactory receptor 878 [1]: increased
Olfr38 expression fold change to HFD group [1, 8]: 2.39
Olfr77 expression fold change to HFD group [1, 8]: 0.5
Olfr275 expression fold change to HFD group [1, 8]: 2.64
Olfr305 expression fold change to HFD group [1, 8]: 2.21
Olfr878 expression fold change to HFD group [1, 8]: 2.76
Olfr77 expression fold change to HFD group ([1]; supplemented to HFD-fed mouse 10 weeks, listed as Cedryl acetate): 0.50
expression of olfactory receptor 38 increased [4]: more than 2 fold change
expression of olfactory receptor 77 decreased [4]: more than 2 fold change
expression of olfactory receptor 275 increased [4]: more than 2 fold change
expression of olfactory receptor 290 increased [4]: more than 2 fold change
expression of olfactory receptor 305 increased [4]: more than 2 fold change
expression of olfactory receptor 341 decreased [4]: more than 2 fold change
expression of olfactory receptor 380 increased [4]: more than 2 fold change
expression of olfactory receptor 417 decreased [4]: more than 2 fold change
expression of olfactory receptor 618 decreased [4]: more than 2 fold change
expression of olfactory receptor 663 increased [4]: more than 2 fold change
expression of olfactory receptor 878 increased [4]: more than 2 fold change
expression of olfactory receptor 1058 increased [4]: more than 2 fold change
expression of olfactory receptor 1104 increased [4]: more than 2 fold change
expression of olfactory receptor 1123 increased [4]: more than 2 fold change
expression of olfactory receptor 1125 increased [4]: more than 2 fold change
expression of olfactory receptor 1136 decreased [4]: more than 2 fold change
expression of olfactory receptor 1157 decreased [4]: more than 2 fold change
expression of olfactory receptor 1165 decreased [4]: more than 2 fold change
expression of olfactory receptor 1442 increased [4]: more than 2 fold change
AKT phosphorylation, increase (change rate) [5, 9]: 33% increase
phosphorylation of AKT [5, 10]: significantly increased
expression of olfactory receptor 290 [2]: increased
expression of olfactory receptor 341 [2]: decreased
expression of olfactory receptor 380 [2]: increased
expression of olfactory receptor 1104 [2]: increased
expression of olfactory receptor 1165 [2]: decreased
Olfr290 expression fold change to HFD group [2, 8]: 2.40
Olfr341 expression fold change to HFD group [2, 8]: 0.32
Olfr380 expression fold change to HFD group [2, 8]: 2.14
Olfr417 expression fold change to HFD group [2, 8]: 0.42
Olfr618 expression fold change to HFD group [2, 8]: 0.43
Olfr663 expression fold change to HFD group [2, 8]: 2.04
Olfr1058 expression fold change to HFD group [2, 8]: 2.18
Olfr1104 expression fold change to HFD group [2, 8]: 3.22
Olfr1123 expression fold change to HFD group [2, 8]: 2.64
Olfr1125 expression fold change to HFD group [2, 8]: 2.07
Olfr1136 expression fold change to HFD group [2, 8]: 0.43
Olfr1157 expression fold change to HFD group [2, 8]: 0.46
Olfr1165 expression fold change to HFD group [2, 8]: 0.36
Olfr1442 expression fold change to HFD group [2, 8]: 2.18
CREB phosphorylation, increase (change rate) [6, 9]: 39% increase
phosphorylation of CREB [6, 10]: significantly increased
HSL phosphorylation, increase (change rate) [7, 9]: 46% increase
phosphorylation of HSL [7, 10]: significantly increased

CC1=CC[C@@]23C[C@@H]1C(C)(C)[C@@H]2CC[C@H]3C [α-cedrene]
expression of olfactory receptor 38 [1]: increased
expression of olfactory receptor 878 [1]: increased
expression of olfactory receptor 1045 [1]: decreased
Olfr38 expression fold change to HFD group [1, 8]: 3.83
Olfr878 expression fold change to HFD group [1, 8]: 5.87
Olfr1045 expression fold change to HFD group [1, 8]: 0.43
Olfr1222 expression fold change to HFD group [1, 8]: 2.15
expression of olfactory receptor 38 increased [4]: more than 2 fold change
expression of olfactory receptor 878 increased [4]: more than 2 fold change
expression of olfactory receptor 1045 decreased [4]: more than 2 fold change
expression of olfactory receptor 1222 increased [4]: more than 2 fold change

Reference: US10167507B2, “Metabolic diseases-related odorant receptor genes and use thereof” (INDUSTRY-ACADEMIC COOPERATION FOUNDATION, YONSEI UNIVERSITY, priority 2010, dated 2019)
